Experimental findings from US6448289B1, “Method for repelling arthropods” (priority 2000, dated 2002) are described below.

The test system of assay [1] is yellow fever mosquitoes (Aedes aegypti). Nature of the assay: Repellency test against yellow fever mosquitoes on treated chick abdomen. The conditions noted are these: dosage 3 g/m^2, ethanol solution on chick abdomen. Type of assay: in vivo. Here is the method:
Fifty adult yellow fever mosquitoes (Aedes aegypti, approximately equal number of female and male) which were about 3 weeks old after emergence were released in a cage (22 cm×22 cm×30 cm, made of stainless steel and nylon gauge).
A chick whose abdominal feathers had been removed with haircutter was fixed on a wood board (7 cm×15 cm) having a hole of 2.5 cm×4 cm so that its abdominal skin was exposed. Next, the ethanol solution (90 μl) prepared according to Production example 1 was treated on the exposed area of the chick. The chick treated the solution on its abdomen was put on the cage, and the treated abdomen was exposed to the cage just after treating and after 3 hours from treating. After 1, 2 and 4 minutes from putting the chick, the number of yellow fever mosquitoes on the abdomen was counted and summed up. The test was repeated twice.
Further, the same procedure was performed using a chick treated ethanol without active ingredient on its abdomen, and the number of yellow fever mosquitoes on the abdomen was counted. […] [formula]
Furthermore, the same procedure was performed using ethanol solution (90 μl) prepared according to Production example 1, provided that DEET was used in place of Compound [A] for comparison.

Assay [2] relates to German cockroaches (Blattella germanica). Nature of the assay: Repellency test against German cockroaches with impregnated filter paper triangular pillar. It counts as in vivo. The conditions noted are these: 24 hours later, dosage 833 mg/m^2; for No. of cockroaches (German cockroaches in the triangular pillar): test repeated twice. Here is the method: A triangular pillar (3 cm-equilateral triangle of opening, 6 cm in length) was prepared with filter paper, and the acetone solution (0.9 ml) prepared according to Production example 2 was impregnated with the triangular pillar uniformly and air-dried for 5 to 10 minutes.
In a 650 cc volume plastic cup, said triangular pillar was placed horizontally, German cockroaches (Blattella germanica, 5 males and 5 females) were placed in said plastic cup, covered with nylon gauze, and then observed the number of German cockroaches in the triangular pillar 24 hours later. The test was repeated twice.
Further, the same procedure was performed using a triangular pillar of filter paper impregnated acetone without active ingredient, and the number of German cockroaches in the triangular pillar 24 hours later was counted. […] [formula]
Furthermore, the same procedure was performed using acetone solution prepared according to Production example 2, provided that DEET or MGK874 was used in place of Compound [A] for comparison.

The structures appear in SMILES notation.

Turning to `CCN(CC)C(=O)c1cccc(C)c1` [DEET, N,N-diethyl-m-toluamide], in assay [1] (After 3 hours), the “No. of mosquitoes (sum of yellow fever mosquitoes on the abdomen of the chick after 1, 2 and 4 minutes)” value (shortened to “No. of mosquitoes”) came to 3; the “Repellency (%)” value is 96.5%. Besides, in assay [1] (Immediately after treating), the “No. of mosquitoes” value came to 0; the “Repellency (%)” value came out at 100%. Further, in assay [2], the “Repellency (%)” value is listed as 0% and the “No. of cockroaches (German cockroaches in the triangular pillar)” value (“No. of cockroaches” below) is given as 20.

Turning to `Cc1cc(O)c(C(=O)CCC(C)C)c(=O)o1` [Compound [A], 4-hydroxy-6-methyl-3-(4-methylpentanoyl)-2-pyrone], in assay [1] (After 3 hours), the “No. of mosquitoes” value was 0; the “Repellency (%)” value was 100%. Moreover, in assay [1] (Immediately after treating), the “No. of mosquitoes” value came out at 0; the “Repellency (%)” value is recorded as 100%. For the same molecule, in assay [2], the “Repellency (%)” value came to 90% and the “No. of cockroaches” value is 2.

As for `CCCCCCCCSCCO` [MGK874, 2-(octylthio)ethanol], in assay [2], the “Repellency (%)” value is listed as 15% and the “No. of cockroaches” value is listed as 17.
